# “Also recorded” adds a separate entry of the source. Where two headings read alike, the source gives them in different places.
# Columns and labels:
# Format in all cases: cell-based
# [1] = test system: Stat5 phosphorylation in NK-92 cells; experiment: Western blotting assay for Stat5; details: NK92, 1 hour, IL-2 stimulation, read-out: Stat5 inhibition
# How it was run: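 NK-92 cells, maintained with IL-2, were pre-treated with compound for 1 h, then stimulated with IL-2 for 15 min. Lysates were western blotted for phospho- and total Jak3 and Stat5. IC50 came from densitometry of phospho-band intensity.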
# [2] = target: T1, Btk (Tyr223) phosphorylation in Ramos cells (Homo sapiens, UniProt Q06187); experiment: Btk Tyr223 phosphorylation inhibition, western blotting assay (Example 72)
# T1 construct: endogenous in cells; host or cells: Ramos cells (ATCC)
# T1 sequence (Q06187 whole entry): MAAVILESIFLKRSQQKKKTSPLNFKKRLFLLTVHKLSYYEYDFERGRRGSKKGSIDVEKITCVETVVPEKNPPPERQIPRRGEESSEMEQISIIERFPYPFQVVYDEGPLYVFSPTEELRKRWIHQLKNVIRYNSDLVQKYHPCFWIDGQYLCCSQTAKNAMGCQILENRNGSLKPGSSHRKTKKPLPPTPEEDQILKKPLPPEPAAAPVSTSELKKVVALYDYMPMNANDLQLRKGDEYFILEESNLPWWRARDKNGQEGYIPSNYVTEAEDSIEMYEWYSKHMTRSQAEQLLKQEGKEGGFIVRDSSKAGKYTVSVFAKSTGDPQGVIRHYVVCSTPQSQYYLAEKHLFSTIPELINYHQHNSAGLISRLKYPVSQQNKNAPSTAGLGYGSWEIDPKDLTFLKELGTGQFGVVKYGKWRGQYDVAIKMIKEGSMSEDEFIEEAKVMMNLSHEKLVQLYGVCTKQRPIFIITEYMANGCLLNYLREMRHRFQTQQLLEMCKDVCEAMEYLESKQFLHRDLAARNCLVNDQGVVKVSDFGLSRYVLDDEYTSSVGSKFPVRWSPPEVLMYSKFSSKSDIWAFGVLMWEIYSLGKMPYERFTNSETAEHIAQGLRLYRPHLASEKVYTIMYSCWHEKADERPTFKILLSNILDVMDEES
# Procedure: Ramos cell line was obtained from the American Type Culture Collection and was maintained at 37° C. with 5% CO2, in media supplemented with 10% fetal bovine serum, penicillin (100 units/mL) and streptomycin (100 μg/mL), Goat F(ab′)2 Anti-Human IgM-UNLB was obtained from SouthernBiotech.
# Ramos cells were treated with compounds at indicated doses for 45 min at room temperature, followed by stimulation of 12 μg/mL of IgM for 30 min, and then lysed. Western blots were performed on the cell lysate using Phospho-Btk (Tyr223), Phospho-Btk (Tyr551), Btk, Phospho-PLCγ2 (Tyr1217), PLCγ2, Phospho-p44/42 MAPK (Erk1/2) (Thr202/Tyr204) and p44/42 MAPK (Erk1/2) antibodies (Cell Signaling Technology). The density of blotting band was acquired using ImageJ software, and the IC50 of Btk (Tyr223) phosphorylation was fitted using a non-linear regression model by GraphPad Prism version 4.0.
# [3] = target: T2, free Btk protein from Ramos cells (Homo sapiens, UniProt Q06187); experiment: Btk target site occupancy ELISA assay; details: for IC50: ELISA
# T2 construct: endogenous in cells; host or cells: Ramos cells (ATCC)
# T2 sequence (Q06187 whole entry): as above
# Procedure: (§1) Ramos cells were treated with Compound I-1 at indicated concentrations for 1 h, followed by stimulation with 6 μg/mL of IgM for 30 mm, and then lysed. Lysates were incubated with Compound I-21 (biotin labeled) at a final concentration of 1 μM in a PBS, 0.05% Tween-20, 1% BSA solution while shaking for 1 h at room temperature. Samples were transferred to a streptavidin-coated 96-well ELISA plate and mixed while shaking for 1 h at room temperature. The Btk antibody (BD 611116, 1:1000 dilution in PBS+0.05% Tween-20+0.5% BSA) was then applied and incubated for 1 h at room temperature. After wash, goat anti-mouse-HRP (Pierce 31432, 1:1000 dilution in PBS+0.05% Tween-20+0.5% BSA) was added and incubated for 1 h at room temperature. The ELISA was developed with addition of tetramethyl benzidine (TMB) followed by Stop Solution and read at OD 450 nm.
# as §1, with “Compounds” for “Compound I-1”, “anti-IgM” for “IgM”, “diluted” for “dilution”, “tetramethylbenzidine” for “tetramethyl benzidine”
# [4] = target: T1, Btk (Tyr223) phosphorylation in Ramos cells; experiment: Western blotting assay for Btk (Example 73); details: 45 min, 6 μg/mL anti-IgM, read-out: Btk Inhibition
# How it was run: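 Ramos cells pre-treated with compound for 45 min at room temperature, then stimulated with 6 μg/mL anti-IgM for 30 min and lysed. Phospho-Btk (Tyr223) measured by Western blot band densitometry; IC50 fitted by non-linear regression.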
# [5] = target: T3, Btk phosphorylation in Ramos cells (Homo sapiens, UniProt Q06187); experiment: Pulse chase western blotting assay for irreversibility / binding property; details: 100 nM for 45 mins, monitored 4, 6 and 8 h post removal
# T3 construct: endogenous in cells; host or cells: Ramos cells (ATCC)
# T3 sequence (Q06187 whole entry): as above
# Procedure: Ramos cells were treated with Compound I-1 at 100 nM for 45 min. Cells were then re-suspended in compound free media and stimulated with 6 μg/ml IgM at 0, 4, 6 or 8 hours after compound removal. Cells were then lysed after 30 mm IgM stimulation. West blotting analysis were then performed.
# Ramos cells were treated with Compounds at 100 nM for 45 min. Cells were then re-suspended in compound free media and stimulated with 6 μg/ml anti-IgM at 0, 4, 6 or 8 hours after compound removal. Cells were then lysed after 30 mm anti-IgM stimulation. Western blotting analysis was then performed.
structure (smiles),measurement,setting,value
"C=CC(=O)Nc1cccc(Oc2nc(Nc3ccc(N4CCN(C)CC4)cc3)ncc2OC)c1 [Compound I-1, N-(3-(5-methoxy-2-(4-(4-methylpiperazin-1-yl)phenylamino)pyrimidin-4-yloxy)phenyl)acrylamide]",IC50,[1],≥ 400 nM
same,IC50,"[2]; Btk Tyr223 phosphorylation, 45 min, 12 μg/mL IgM, read-out: BTK Inhibition",< 10 nM
same,IC50,"[2]; treated 45 mins, read-out: inhibition IC50 of the phosphorylation of BTK protein",1.1 nM
same,reduction of the Btk Tyr223 phosphorylation in Ramos cells,[2]; western blot,reduction of the Btk Tyr223 phosphorylation; also recorded: dose-dependent inhibition of the BTK phosphorylation
same,IC50,"[3]; 1 h, read-out: Btk Occupancy Assay (IC50)",≤ 10 nM
same,OD 450 (average),[3]; Compound I-1 0.2 nM,0.1686
same,free Btk,[3]; Compound I-1 0.2 nM,2414 pg
same,OD 450 (average),[3]; Compound I-1 0.7 nM,0.1811
same,free Btk,[3]; Compound I-1 0.7 nM,2592 pg
same,OD 450 (average),[3]; Compound I-1 3 nM,0.1219
same,free Btk,[3]; Compound I-1 3 nM,1747 pg
same,OD 450 (average),[3]; Compound I-1 12 nM,−0.0161
same,free Btk,[3]; Compound I-1 12 nM,-224 pg
same,OD 450 (average),[3]; Compound I-1 47 nM,0.0114
same,free Btk,[3]; Compound I-1 47 nM,168 pg
same,OD 450 (average),[3]; Compound I-1 188 nM,−0.0207
same,free Btk,[3]; Compound I-1 188 nM,-290 pg
same,OD 450 (average),[3]; Compound I-1 750 nM,−0.0456
same,free Btk,[3]; Compound I-1 750 nM,-646 pg
same,OD 450 (average),[3]; Compound I-1 3000 nM,−0.0487
same,free Btk,[3]; Compound I-1 3000 nM,-689 pg
same,IC50,[3]; read-out: BTK target site occupancy IC50,0.5 nM
same,occupancy of the Btk proteins,[3]; increasing concentrations,dose-dependent occupancy of the BTK proteins correlates with its inhibitory activity of BTK kinase
same,IC50,[4],≤ 10 nM
same,inhibition of BTK phosphorylation after compound removal (irreversibility),[5],remains inhibited up to 8 his; also recorded: long term effect of the inhibition was observed after compounds removal up to 8 hours; also recorded: remains inhibited up to 8 hrs; also recorded: irreversibly inhibited the BTK phosphorylation; also recorded: inhibited the Btk phosphorylation in Ramos cells after 8 hours of removal

# Reference: US9920074B2 (ACEA BIOSCIENCES INC., priority 2013, dated 2018)
